Experimental data: the supplement of paper PMC10307832

Tests used:
Test in all cases: relative viability (nuclei count vs DMSO), 5 days (fraction); higher = more cells survive
UMC-11 = test system: UMC-11
In short: (§1)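 Relative viability equals treated-well nuclei counts divided by vehicle-well nuclei counts. Counts came from 4× images of lung cancer cell lines grown in 1536-well plates for 5 days after pin-tool dosing on the day after seeding. Dosing used one drug alone or a fixed anchor-drug dose plus five library-drug doses (not always all listed) in √10 steps, and values are medians of duplicate plates.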

BEN = test system: BEN
In short: as §1

NCI-H2126 = test system: NCI-H2126
In short: as §1

HCC-78 = test system: HCC-78
In short: as §1

NCI-H1395 = test system: NCI-H1395
In short: as §1

SW 900 = test system: SW 900
In short: as §1

LC-2-ad = test system: LC-2-ad
In short: as §1

EMC-BAC-2 = test system: EMC-BAC-2
In short: as §1

LOU-NH91 = test system: LOU-NH91
In short: as §1

COR-L 105 = test system: COR-L 105
In short: as §1

RERF-LC-KJ = test system: RERF-LC-KJ
In short: as §1

HOP-62 = test system: HOP-62
In short: as §1

LXF-289 = test system: LXF-289
In short: as §1

201T = test system: 201T
In short: as §1

H3255 = test system: H3255
In short: as §1

NCI-H1993 = test system: NCI-H1993
In short: as §1

NCI-H2087 = test system: NCI-H2087
In short: as §1

NCI-H2170 = test system: NCI-H2170
In short: as §1

HARA = test system: HARA
In short: as §1

SK-MES-1 = test system: SK-MES-1
In short: as §1

NCI-H650 = test system: NCI-H650
In short: as §1

LU99A = test system: LU99A
In short: as §1

Cc1csc(=NC2CCCCC2)n1/N=C/c1ccc(O)c(O)c1O [MIM1] + Nc1ncn([C@H]2C[C@H](O)[C@@H](CO)O2)c(=O)n1 [Decitabine] (partner 2 µM)
relative viability (UMC-11; first compound 0.2 µM): 0.565 | relative viability (UMC-11; first compound 0.6325 µM): 0.585 | relative viability (UMC-11; first compound 2 µM): 0.647 | relative viability (UMC-11; first compound 6.325 µM): 0.607 | relative viability (UMC-11; first compound 20 µM): 0.42 | relative viability (BEN; first compound 0.2 µM): 0.811 | relative viability (BEN; first compound 0.6325 µM): 0.547 | relative viability (BEN; first compound 2 µM): 0.797 | relative viability (BEN; first compound 6.325 µM): 0.739 | relative viability (BEN; first compound 20 µM): 0.317 | relative viability (NCI-H2126; first compound 0.2 µM): 0.659 | relative viability (NCI-H2126; first compound 0.6325 µM): 0.628 | relative viability (NCI-H2126; first compound 2 µM): 0.545 | relative viability (NCI-H2126; first compound 6.325 µM): 0.584 | relative viability (NCI-H2126; first compound 20 µM): 0.488 | relative viability (HCC-78; first compound 0.2 µM): 0.784 | relative viability (HCC-78; first compound 2 µM): 0.728 | relative viability (HCC-78; first compound 6.325 µM): 0.502 | relative viability (HCC-78; first compound 20 µM): 0.426 | relative viability (NCI-H1395; first compound 0.2 µM): 0.708 | relative viability (NCI-H1395; first compound 0.6325 µM): 0.793 | relative viability (NCI-H1395; first compound 2 µM): 0.646 | relative viability (NCI-H1395; first compound 6.325 µM): 0.688 | relative viability (NCI-H1395; first compound 20 µM): 0.427 | relative viability (SW 900; first compound 0.2 µM): 0.345 | relative viability (SW 900; first compound 0.6325 µM): 0.482 | relative viability (SW 900; first compound 2 µM): 0.486 | relative viability (SW 900; first compound 6.325 µM): 0.31 | relative viability (SW 900; first compound 20 µM): 0.206 | relative viability (LC-2-ad; first compound 0.2 µM): 0.777 | relative viability (LC-2-ad; first compound 0.6325 µM): 0.736 | relative viability (LC-2-ad; first compound 2 µM): 0.868 | relative viability (LC-2-ad; first compound 6.325 µM): 0.453 | relative viability (LC-2-ad; first compound 20 µM): 0.508 | relative viability (EMC-BAC-2; first compound 0.2 µM): 0.97 | relative viability (EMC-BAC-2; first compound 0.6325 µM): 0.897 | relative viability (EMC-BAC-2; first compound 2 µM): 0.8 | relative viability (EMC-BAC-2; first compound 6.325 µM): 0.852 | relative viability (EMC-BAC-2; first compound 20 µM): 0.368 | relative viability (LOU-NH91; first compound 0.2 µM): 0.787 | relative viability (LOU-NH91; first compound 0.6325 µM): 0.788 | relative viability (LOU-NH91; first compound 2 µM): 0.644 | relative viability (LOU-NH91; first compound 6.325 µM): 0.742 | relative viability (LOU-NH91; first compound 20 µM): 0.458 | relative viability (COR-L 105; first compound 0.2 µM): 0.592 | relative viability (COR-L 105; first compound 0.6325 µM): 0.661 | relative viability (COR-L 105; first compound 2 µM): 0.72 | relative viability (COR-L 105; first compound 6.325 µM): 0.571 | relative viability (COR-L 105; first compound 20 µM): 0.571 | relative viability (RERF-LC-KJ; first compound 0.2 µM): 0.624 | relative viability (RERF-LC-KJ; first compound 0.6325 µM): 0.652 | relative viability (RERF-LC-KJ; first compound 2 µM): 0.377 | relative viability (RERF-LC-KJ; first compound 6.325 µM): 0.301 | relative viability (RERF-LC-KJ; first compound 20 µM): 0.22 | relative viability (HOP-62; first compound 0.2 µM): 0.206 | relative viability (HOP-62; first compound 0.6325 µM): 0.222 | relative viability (HOP-62; first compound 2 µM): 0.206 | relative viability (HOP-62; first compound 6.325 µM): 0.222 | relative viability (HOP-62; first compound 20 µM): 0.147 | relative viability (LXF-289; first compound 0.2 µM): 0.399 | relative viability (LXF-289; first compound 0.6325 µM): 0.368 | relative viability (LXF-289; first compound 2 µM): 0.394 | relative viability (LXF-289; first compound 6.325 µM): 0.328 | relative viability (LXF-289; first compound 20 µM): 0.253 | relative viability (201T; first compound 0.2 µM): 0.849 | relative viability (201T; first compound 0.6325 µM): 0.887 | relative viability (201T; first compound 2 µM): 0.812 | relative viability (201T; first compound 6.325 µM): 0.831 | relative viability (201T; first compound 20 µM): 0.533 | relative viability (H3255; first compound 0.2 µM): 0.562 | relative viability (H3255; first compound 0.6325 µM): 0.657 | relative viability (H3255; first compound 2 µM): 0.527 | relative viability (H3255; first compound 6.325 µM): 0.486 | relative viability (H3255; first compound 20 µM): 0.242 | relative viability (NCI-H1993; first compound 0.2 µM): 0.534 | relative viability (NCI-H1993; first compound 0.6325 µM): 0.531 | relative viability (NCI-H1993; first compound 2 µM): 0.517 | relative viability (NCI-H1993; first compound 6.325 µM): 0.483 | relative viability (NCI-H1993; first compound 20 µM): 0.3 | relative viability (NCI-H2087; first compound 0.2 µM): 0.286 | relative viability (NCI-H2087; first compound 0.6325 µM): 0.273 | relative viability (NCI-H2087; first compound 2 µM): 0.231 | relative viability (NCI-H2087; first compound 6.325 µM): 0.327 | relative viability (NCI-H2087; first compound 20 µM): 0.246 | relative viability (NCI-H2170; first compound 0.2 µM): 0.448 | relative viability (NCI-H2170; first compound 0.6325 µM): 0.455 | relative viability (NCI-H2170; first compound 2 µM): 0.494 | relative viability (NCI-H2170; first compound 6.325 µM): 0.401 | relative viability (NCI-H2170; first compound 20 µM): 0.27 | relative viability (HARA; first compound 0.2 µM): 0.529 | relative viability (HARA; first compound 0.6325 µM): 0.722 | relative viability (HARA; first compound 2 µM): 0.697 | relative viability (HARA; first compound 6.325 µM): 0.475 | relative viability (HARA; first compound 20 µM): 0.204 | relative viability (SK-MES-1; first compound 0.2 µM): 0.454 | relative viability (SK-MES-1; first compound 0.6325 µM): 0.424 | relative viability (SK-MES-1; first compound 2 µM): 0.376 | relative viability (SK-MES-1; first compound 6.325 µM): 0.272 | relative viability (SK-MES-1; first compound 20 µM): 0.21 | relative viability (NCI-H650; first compound 0.2 µM): 0.294 | relative viability (NCI-H650; first compound 0.6325 µM): 0.342 | relative viability (NCI-H650; first compound 2 µM): 0.345 | relative viability (NCI-H650; first compound 6.325 µM): 0.323 | relative viability (NCI-H650; first compound 20 µM): 0.206 | relative viability (LU99A; first compound 0.2 µM): 0.87 | relative viability (LU99A; first compound 0.6325 µM): 0.845 | relative viability (LU99A; first compound 2 µM): 0.927 | relative viability (LU99A; first compound 6.325 µM): 0.889 | relative viability (LU99A; first compound 20 µM): 0.393
